The target of assay [1] is T1, 5-LOX (Rattus norvegicus, UniProt P12527).
T1 sequence (P12527 1-673): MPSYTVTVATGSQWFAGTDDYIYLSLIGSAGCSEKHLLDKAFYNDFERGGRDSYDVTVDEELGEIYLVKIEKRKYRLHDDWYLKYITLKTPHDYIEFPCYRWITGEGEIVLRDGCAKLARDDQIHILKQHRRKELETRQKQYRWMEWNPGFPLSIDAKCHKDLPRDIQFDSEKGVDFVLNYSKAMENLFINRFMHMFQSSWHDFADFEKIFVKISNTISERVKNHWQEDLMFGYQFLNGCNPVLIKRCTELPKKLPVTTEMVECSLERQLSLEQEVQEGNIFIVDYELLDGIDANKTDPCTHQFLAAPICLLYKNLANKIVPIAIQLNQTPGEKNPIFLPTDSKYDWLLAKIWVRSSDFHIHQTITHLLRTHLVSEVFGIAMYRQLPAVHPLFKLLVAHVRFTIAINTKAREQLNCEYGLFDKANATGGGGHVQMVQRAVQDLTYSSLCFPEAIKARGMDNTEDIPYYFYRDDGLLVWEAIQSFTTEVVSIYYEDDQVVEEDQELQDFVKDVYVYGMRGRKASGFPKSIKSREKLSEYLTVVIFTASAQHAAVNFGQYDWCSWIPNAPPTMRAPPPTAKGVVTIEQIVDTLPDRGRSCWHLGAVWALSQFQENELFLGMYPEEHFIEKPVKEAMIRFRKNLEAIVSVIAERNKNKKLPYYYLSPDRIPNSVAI
As to the kind of experiment: Inhibition of 5-LOX product synthesis. Conditions: for inhibition at 5 µM: PMNL, read-out: Inhibition at 5 μmol/L (%); for IC50: rat peritoneal polymorphonuclear leukocytes; for Inhibition at 5 μmol/L (%): rat PMNLs, mean of three determinations. The assay is classed as cell-based.

Assay [2] has as its target T2, 5-LOX (Homo sapiens, UniProt P09917).
T2 sequence (P09917 1-674): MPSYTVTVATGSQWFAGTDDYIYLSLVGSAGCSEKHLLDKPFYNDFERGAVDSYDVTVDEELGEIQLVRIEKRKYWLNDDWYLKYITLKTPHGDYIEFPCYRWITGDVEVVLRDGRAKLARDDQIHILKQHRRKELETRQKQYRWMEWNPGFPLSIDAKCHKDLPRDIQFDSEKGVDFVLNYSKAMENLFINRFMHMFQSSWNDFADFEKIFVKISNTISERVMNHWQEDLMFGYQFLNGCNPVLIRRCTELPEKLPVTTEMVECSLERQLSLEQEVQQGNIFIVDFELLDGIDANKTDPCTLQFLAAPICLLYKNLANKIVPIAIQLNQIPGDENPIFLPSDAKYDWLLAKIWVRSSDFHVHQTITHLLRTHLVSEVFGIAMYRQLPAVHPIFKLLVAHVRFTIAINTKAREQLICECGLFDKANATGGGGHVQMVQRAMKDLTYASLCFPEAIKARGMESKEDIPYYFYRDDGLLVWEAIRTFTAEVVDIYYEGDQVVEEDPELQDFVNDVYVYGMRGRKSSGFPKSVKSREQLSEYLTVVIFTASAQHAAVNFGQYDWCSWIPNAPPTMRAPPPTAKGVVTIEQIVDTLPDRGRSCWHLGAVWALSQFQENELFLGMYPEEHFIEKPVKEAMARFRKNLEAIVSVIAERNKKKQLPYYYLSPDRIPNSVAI
The assay is described as follows: Cell-free 5-LOX enzymatic assay. The assay is classed as biochemical.

Assay [3] has as its target T2, 5-LOX. As to the kind of experiment: Inhibition of 5-LOX product synthesis. The assay is classed as cell-based.

This is an account of results in article PMC4724694 (Acta Pharmaceutica Sinica. B, 2016).

Like-named read-outs stand apart in the source and are kept apart here.

Take `CC(C)(C)c1cc(NC(=O)c2cc(-c3ccccc3)n(-c3ccc(F)cc3)n2)cc(C(C)(C)C)c1O` [6a, N-(3,5-di-tert-butyl-4-hydroxyphenyl)-1-(4-fluorophenyl)-5-phenyl-1H-pyrazole-3-carboxamide]: the inhibition at 5 µM at 5-LOX [1] was 56.8%.

In the case of `CC(C)(C)c1cc(NC(=O)c2cc(-c3ccccc3)n(-c3ccc(S(C)(=O)=O)cc3)n2)cc(C(C)(C)C)c1O` [5a, N-(3,5-di-tert-butyl-4-hydroxyphenyl)-1-(4-methylsulfonylphenyl)-5-phenyl-1H-pyrazole-3-carboxamide], at 5-LOX [1], the inhibition at 5 µM came to 41.9%.

As to `Cc1ccc(-c2cc(C(=O)Nc3cc(C(C)(C)C)c(O)c(C(C)(C)C)c3)nn2-c2ccc(S(C)(=O)=O)cc2)cc1` [5b, N-(3,5-di-tert-butyl-4-hydroxyphenyl)-1-(4-methylsulfonylphenyl)-5-p-tolyl-1H-pyrazole-3-carboxamide], the inhibition at 5 µM on 5-LOX [1] came to 62.8%.

On to `Cc1ccc(-c2cc(C(=O)Nc3cc(C(C)(C)C)c(O)c(C(C)(C)C)c3)nn2-c2ccc(F)cc2)cc1` [6b, N-(3,5-di-tert-butyl-4-hydroxyphenyl)-1-(4-fluorophenyl)-5-p-tolyl-1H-pyrazole-3-carboxamide], for which the IC50 at 5-LOX [1] (IC50 PMNL) was 820 nM; against 5-LOX [2], 327 ± 22 nM; against 5-LOX [3], 10200 nM. The inhibition at 5 µM at 5-LOX [1] turned out to be 83.7%.

`CC(C)(C)c1cc(NC(=O)c2cc(-c3ccc4c(c3)OCCO4)n(-c3ccc(S(N)(=O)=O)cc3)n2)cc(C(C)(C)C)c1O` [4f, N-(3,5-di-tert-butyl-4-hydroxyphenyl)-5-(2,3-dihydrobenzo [1, 4]dioxin-7-yl)-1-(4-aminosulfonylphenyl)-1H-pyrazole-3-carboxamide]: at 5-LOX [1], the inhibition at 5 µM amounted to 50.7%.

With `COc1ccc(-c2cc(C(=O)Nc3cc(C(C)(C)C)c(O)c(C(C)(C)C)c3)nn2-c2ccc(S(C)(=O)=O)cc2)cc1` [5c, N-(3,5-di-tert-butyl-4-hydroxyphenyl)-1-(4-methylsulfonylphenyl)-5-p-methoxyphenyl-1H-pyrazole-3-carboxamide], the inhibition at 5 µM at 5-LOX [1] worked out at 35.6%.

Take `CC(C)(C)c1cc(NC(=O)c2cc(-c3ccc(F)cc3)n(-c3ccc(S(N)(=O)=O)cc3)n2)cc(C(C)(C)C)c1O` [4h, N-(3,5-di-tert-butyl-4-hydroxyphenyl)-1-(4-aminosulfonylphenyl)-5-p-fluorophenyl-1H-pyrazole-3-carboxamide]: on 5-LOX [1], the inhibition at 5 µM is 39.3%.

With `CC(C)(C)c1cc(NC(=O)c2cc(-c3ccc4ccccc4c3)n(-c3ccc(S(N)(=O)=O)cc3)n2)cc(C(C)(C)C)c1O` [4g, N-(3,5-di-tert-butyl-4-hydroxyphenyl)-1-(4-aminosulfonylphenyl)-5-naphth-2-yl-1H-pyrazole-3-carboxamide], the figures for the concentration for half-maximal inhibition (IC50) against 5-LOX [1] (IC50 PMNL), against 5-LOX [2] and against 5-LOX [3] were 750 nM, 165 ± 17 nM and 2110 nM, respectively. Besides, the inhibition at 5 µM on 5-LOX [1] was 66.1%.

On to `CC(C)(C)c1cc(NC(=O)c2cc(-c3ccc(C(F)(F)F)cc3)n(-c3ccc(S(N)(=O)=O)cc3)n2)cc(C(C)(C)C)c1O` [4i, N-(3,5-di-tert-butyl-4-hydroxyphenyl)-1-(4-aminosulfonylphenyl)-5-p-trifluoromethylphenyl-1H-pyrazole-3-carboxamide], for which, at 5-LOX [1], the “Inhibition at 5 μmol/L (%)” value stood at 61.9%.

Turning to `Cc1ccc(-c2cc(C(=O)Nc3cc(C(C)(C)C)c(O)c(C(C)(C)C)c3)nn2-c2ccc(S(N)(=O)=O)cc2)cc1` [4b, N-(3,5-di-tert-butyl-4-hydroxyphenyl)-1-(4-aminosulfonylphenyl)-5-p-tolyl-1H-pyrazole-3-carboxamide], the inhibition at 5 µM on 5-LOX [1] came out at 65.7%.

For `CC(C)(C)c1cc(NC(=O)c2cc(-c3ccc4c(c3)OCCO4)n(-c3ccc(S(C)(=O)=O)cc3)n2)cc(C(C)(C)C)c1O` [5f, N-(3,5-di-tert-butyl-4-hydroxyphenyl)-5-(2,3-dihydrobenzo [1, 4]dioxin-7-yl)-1-(4-methylsulfonylphenyl)-1H-pyrazole-3-carboxamide], the half-maximal inhibitory concentration (IC50) against 5-LOX [1] (IC50 PMNL) is 810 nM; at 5-LOX [2], 273 ± 21 nM; against 5-LOX [3] it was 4650 nM. In addition, the inhibition at 5 µM on 5-LOX [1] was determined as 70.3%.

Regarding `CC(C)(C)c1cc(NC(=O)c2cc(-c3ccc(Br)s3)n(-c3ccc(S(N)(=O)=O)cc3)n2)cc(C(C)(C)C)c1O` [4k, N-(3,5-di-tert-butyl-4-hydroxyphenyl)-1-(4-aminosulfonylphenyl)-5-(5-bromothiophen-2-yl)-1H-pyrazole-3-carboxamide], the IC50 worked out at 900 nM against 5-LOX [1] (IC50 PMNL), 159 ± 16 nM against 5-LOX [2] and 5830 nM against 5-LOX [3]. For the same compound, the inhibition at 5 µM on 5-LOX [1] amounted to 74.5%.

`CC(C)(C)c1cc(NC(=O)c2cc(C3CCCCC3)n(-c3ccc(S(N)(=O)=O)cc3)n2)cc(C(C)(C)C)c1O` [4j, N-(3,5-di-tert-butyl-4-hydroxyphenyl)-1-(4-aminosulfonylphenyl)-5-cyclo-hexyl-1H-pyrazole-3-carboxamide]: the concentration for half-maximal inhibition (IC50) against 5-LOX [1] (IC50 PMNL) is 1070 nM; against 5-LOX [3], 33900 nM. The inhibition at 5 µM at 5-LOX [1] came to 69.2%.

For `CC(C)(C)c1cc(NC(=O)c2cc(-c3ccc(C(F)(F)F)cc3)n(-c3ccc(S(C)(=O)=O)cc3)n2)cc(C(C)(C)C)c1O` [5i, N-(3,5-di-tert-butyl-4-hydroxyphenyl)-1-(4-methylsulfonylphenyl)-5-p-tri-fluoromethylphenyl-1H-pyrazole-3-carboxamide], the “Inhibition at 5 μmol/L (%)” value on 5-LOX [1] worked out at 69.6%. The IC50 on 5-LOX [1] (read-out: IC50 PMNL) was 800 nM; on 5-LOX [2] (read-out: IC50 Enzymatic assay, cell-free, human 5-LOX, triplicate) it was 127 ± 29 nM; at 5-LOX [3] (read-out: IC50 HWB, human whole blood) it was 1130 nM.

Turning to `CC(C)(C)c1cc(NC(=O)c2cc(-c3ccccc3)n(-c3ccc(S(N)(=O)=O)cc3)n2)cc(C(C)(C)C)c1O` [4a, N-(3,5-di-tert-butyl-4-hydroxyphenyl)-1-(4-aminosulfonyl-phenyl)-5-phenyl-1H-pyrazole-3-carboxamide], on 5-LOX [1], the inhibition at 5 µM amounted to 55.7%.

Turning to `CC(C)Cc1ccc(-c2cc(C(=O)Nc3cc(C(C)(C)C)c(O)c(C(C)(C)C)c3)nn2-c2ccc(S(C)(=O)=O)cc2)cc1` [5d, N-(3,5-di-tert-butyl-4-hydroxyphenyl)-1-(4-methylsulfonylphenyl)-5-p-iso-butylphenyl-1H-pyrazole-3-carboxamide], the inhibition at 5 µM at 5-LOX [1] came to 60.2%.

`CC(C)(C)c1cc(NC(=O)c2cc(C3CCCCC3)n(-c3ccc(S(C)(=O)=O)cc3)n2)cc(C(C)(C)C)c1O` [5j, N-(3,5-di-tert-butyl-4-hydroxyphenyl)-1-(4-methylsulfonylphenyl)-5-cyclo-hexyl-1H-pyrazole-3-carboxamide]: the inhibition at 5 µM on 5-LOX [1] came out at 57.3%.

Turning to `CC(C)(C)c1cc(NC(=O)c2cc(-c3ccc4c(c3)OCO4)n(-c3ccc(S(C)(=O)=O)cc3)n2)cc(C(C)(C)C)c1O` [5e, N-(3,5-di-tert-butyl-4-hydroxyphenyl)-5-(benzo [1, 3]dioxol-5-yl)-1-(4-methylsulfonylphenyl)-1H-pyrazole-3-carboxamide], the results for the concentration for half-maximal inhibition (IC50) against 5-LOX [1] (IC50 PMNL), on 5-LOX [2] and against 5-LOX [3] were 640 nM, 169 ± 16 nM and 940 nM, respectively. Besides, the inhibition at 5 µM on 5-LOX [1] came to 79.3%.

Consider `CC(C)(C)c1cc(NC(=O)c2cc(-c3ccc4ccccc4c3)n(-c3ccc(S(C)(=O)=O)cc3)n2)cc(C(C)(C)C)c1O` [5g, N-(3,5-di-tert-butyl-4-hydroxyphenyl)-1-(4-methylsulfonylphenyl)-5-naphth-2-yl-1H-pyrazole-3-carboxamide], for which the inhibition at 5 µM at 5-LOX [1] turned out to be 51.7%.

As for `CC(C)Cc1ccc(-c2cc(C(=O)Nc3cc(C(C)(C)C)c(O)c(C(C)(C)C)c3)nn2-c2ccc(S(N)(=O)=O)cc2)cc1` [4d, N-(3,5-di-tert-butyl-4-hydroxyphenyl)-1-(4-aminosulfonylphenyl)-5-p-iso-butylphenyl-1H-pyrazole-3-carboxamide], the inhibition at 5 µM at 5-LOX [1] was 59%.
